Drawing on patent US7517875B2, “Piperidine derivatives having CCR3 antagonism” (Teijin Limited, priority 2002, dated 2009), this text covers inhibition for nine compounds.

SMILES strings stand for the structures.

One test addresses T1, CCR3 receptor (Homo sapiens, UniProt P51677).
T1 construct: expressed in transfected cells; host or cells: K562 cells
T1 sequence (P51677 1-355): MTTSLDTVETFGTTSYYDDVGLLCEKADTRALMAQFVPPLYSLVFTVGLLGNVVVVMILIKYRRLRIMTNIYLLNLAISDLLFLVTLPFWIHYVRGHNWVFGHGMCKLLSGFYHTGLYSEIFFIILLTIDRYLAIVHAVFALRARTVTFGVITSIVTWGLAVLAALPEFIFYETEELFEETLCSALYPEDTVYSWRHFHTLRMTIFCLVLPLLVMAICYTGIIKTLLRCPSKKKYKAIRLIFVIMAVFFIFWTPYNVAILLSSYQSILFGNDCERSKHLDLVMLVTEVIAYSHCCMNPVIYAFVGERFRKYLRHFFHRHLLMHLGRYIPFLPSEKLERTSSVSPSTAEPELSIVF
Briefly: Inhibition of eotaxin-induced intracellular calcium concentration increase in CCR3-expressing cells. It is filed as cell-based. The following applies: 2 μM concentration of compound; CCR3-expressing K562 cells; human eotaxin 0.5 μg/ml; read-out: inhibition of eotaxin-induced intracellular calcium concentration increase (Suppression). The protocol:
Measurement of Inhibiting Power of Test Compounds Against Eotaxin-Induced Intracellular Calcium Concentration Increase in CCR3-Expressing Cells
K562 cells stably expressing CCR3 receptor were used in the following method for measurement of the inhibiting power of compounds of the invention against intracellular calcium concentration increase.
The CCR3-expressing K562 cells were suspended in HBSS solution (Hanks' Balanced Salt Solution, Gibco BRL) containing 10 mM HEPES (N-[2-hydroxyethyl]piperazine-N′-[2-ethanesulfonic acid], Gibco BRL), and then 1 mM Fura-2 acetoxymethyl ester (product of Dojin Kagaku) was added to a final concentration of 1 μM and the mixture was incubated at 37° C. for 30 minutes. After rinsing the cells, they were added simultaneously with the test compound into a 96-well white plate (Falcon), the agonist was added after 5 minutes, the mixture was excited at 340 nm and 380 nm, and the 340/380 ratio was monitored to measure the intracellular calcium concentration. Human eotaxin (product of Genzyme Techne) (0.5 μg/ml) was used as an agonist. The inhibiting power of the test compound was determined by measuring the intracellular calcium concentration upon treatment of the CCR3-expressing K562 cells with the test compound 5 minutes before eotaxin stimulation, and calculating the suppression by the following formula. Suppression (%)={1−(A−B)/(C−B)}×100 (A: Intracellular calcium concentration upon stimulation with eotaxin after treatment with test compound, B: Intracellular calcium concentration without stimulation, C: Intracellular calcium concentration upon stimulation with eotaxin without treatment with test compound)
For orientation: Calcium assays in cells follow changes in intracellular calcium, usually with a dye or a luminescent sensor.
`CC(=O)NCCC(=O)Nc1cccc2[nH]c(NCC3CCN(Cc4cccc5ccccc45)CC3)nc12` [1-3-1, 3-acetylamino-N-{2-[(1-naphthalen-1-ylmethyl-piperidin-4-ylmethyl)-amino]-1H-benzimidazol-4-yl}-propionamide]: the inhibition at 2 µM is at least 80%.

For the compound `COC(=O)c1cccc2[nH]c(NCC3CCN(Cc4cc(Cl)cc(Cl)c4O)CC3)nc12` [1-4-1, 2-{[1-(3,5-dichloro-2-hydroxy-benzyl)-piperidin-4-ylmethyl]-amino}-1H-benzimidazole-4-carboxylic acid methyl ester], the inhibition at 2 µM was in the range of 20 to 50%.

For `COCCNC(=O)c1cccc2[nH]c(NCC3CCN(Cc4cc(Cl)ccc4O)CC3)nc12` [1-4-10, 2-{[1-(5-chloro-2-hydroxy-benzyl)-piperidin-4-ylmethyl]-amino}-1H-benzimidazole-4-carboxylic acid (2-methoxy-ethyl)-amide], the inhibition at 2 µM was at least 80%.

The same test, now with this note: 10 μM concentration of compound; CCR3-expressing K562 cells; human eotaxin 0.5 μg/ml; read-out: inhibition of eotaxin-induced intracellular calcium concentration increase (Suppression).
Regarding `Clc1ccc(CN2CCC(CNc3nc4ccccc4[nH]3)CC2)cc1Cl` [1-1-1, (1H-benzoimidazol-2-yl)-[1-(3,4-dichloro-benzyl)-piperidin-4-ylmethyl]-amine], the inhibition at 10 µM was at least 80%.

As to `Cn1c(CN2CCC(CNc3nc4ccccc4[nH]3)CC2)cc2ccccc21` [1-2-1, (1H-benzimidazol-2-yl)-[1-(1-methyl-1H-indol-2-ylmethyl)-piperidin-4-ylmethyl]-amine], the inhibition at 10 µM was at least 80%.

For the compound `c1ccc(CCCCN2CCC(CNc3nc4ccccc4[nH]3)CC2)cc1` [1-2-170, (1H-benzimidazol-2-yl)-[1-(4-phenyl-butyl)-piperidin-4-ylmethyl]-amine], the inhibition at 10 µM is 50 to 80%.

With `CCNC(=O)Nc1cccc2[nH]c(NCC3CCN(Cc4ccc(Cl)c(Cl)c4)CC3)nc12` [1-3-59, 1-(2-{[1-(3,4-dichloro-benzyl)-piperidin-4-ylmethyl]-amino}-1H-benzimidazol-4-yl)-3-ethyl-urea], the inhibition at 10 µM is at least 80%.

On to `Nc1cccc2[nH]c(NCC3CCN(Cc4ccc(Cl)c(Cl)c4)CC3)nc12` [1-3-61, N2-[1-(3,4-dichlorobenzyl)-piperidin-4-ylmethyl]-1H-benzimidazole-2,4-diamine], for which the inhibition at 10 µM was at least 80%.

Turning to `O=C(O)c1ccc2[nH]c(NCC3CCN(CCCc4ccccc4)CC3)nc2c1` [1-5-20, 2-{[1-(3-phenyl-propyl)-piperidin-4-ylmethyl]-amino}-1H-benzimidazole-5-carboxylic acid], the inhibition at 10 µM fell in the range of 50 to 80%.
